In the assay the test system is Pseudomonas aeruginosa (ATCC 15442) biofilm. The assay can be described thus: Efficacy against biofilm, CDC Biofilm Reactor and Single Tube Method (ASTM E3161-18, ASTM E2871-19). The following applies: for Average Log Reduction: 10 min exposure. In kind it is cell-based. On the procedure: The efficacy against biofilm was performed as described in the standard test methods ASTM E3161-18 (Standard Practice for Preparing a Pseudomonas aeruginosa or Staphylococcus aureus Biofilm using the CDC Biofilm Reactor) and ASTM E2871-19 (Standard Test Method for Determining Disinfectant Efficacy Against Biofilm Grown in the CDC Biofilm Reactor Using the Single Tube Method). A Pseudomonas aeruginosa (ATCC 15442) biofilm was the organism used for determination of composition efficacy against biofilm on hard non-porous surfaces. Biofilm for composition efficacy was generated as outlined in ASTM E3161-18. A 10 uL sample of a thawed frozen stock culture was used to inoculate 10 mL of sterile 100 mg/L Tryptic Soy Broth (TSB) which was then allowed to incubate for 24±2 hours at 35±2° C. Following growth, a 1 mL sample of this initial culture was used to inoculate a CDC Biofilm Reactor containing borosilicate glass coupons and 500 mL of sterile 300 mg/L TSB. The reactor system was allowed to incubate at room temperature (i.e. 21±2° C.) for 24±2 hours with a baffle rotational speed of 125±5 RPM under Batch Phase as directed in ASTM E3161-18. Following Batch Phase growth, Continuous Flow Phase growth was initiated by continuous pumping of 100 mg/L TSB into the reactor system at an appropriate flow rate to ensure the test organism residence time of 30±2 minutes. The reactor system was allowed to incubate at room temperature (i.e. 21±2° C.) for 24±2 hours with a baffle rotational speed of 125±5 RPM under Continuous Flow Phase as directed in ASTM E3161-18. Following completion of the growth, biofilm test carriers were removed from the CDC Biofilm Reactor, rinsed in sterile buffer to remove any non-adhered cells and individual carriers were placed into sterile 50 mL conical tubes for composition treatment. Determination of compositional efficacy against Pseudomonas aeruginosa biofilm was performed as outlined in ASTM E2871-19. A 4 mL sample of each composition (or sterile buffer for control carriers) was pipetted into each corresponding tube containing a test carrier. Triplicate test carriers were analyzed per composition or control. Test and control carriers were allowed to expose for 10 minutes at room temperature (i.e. 21±2° C.). Following exposure, each carrier was appropriately neutralized with 36 mL of Neutralizing Broth. Neutralized carriers were vortex mixed and sonicated to remove/disaggregate the biofilm from the carrier surface as outlined in ASTM E2871-19. Disaggregated biofilm samples were serially diluted in sterile buffer and spread plated onto appropriate agar for determination of plate counts. Log reductions for each composition were determined by comparing the calculated average Log10 from the set of recovered control carriers to the calculated average Log10 from each set of recovered composition carriers. In addition to carrier control determination, an appropriate Neutralization Confirmation Control was performed for each composition to ensure that the Neutralizing Broth chosen appropriately neutralized the test solution.
The various combinations of biocides and hydronium ion (all from sulfuric acid) were evaluated at the use concentration (ppm biocide) pH and moles of hydronium in the use concentration as set forth in Table 2.

Setting [1] is: active 100 ppm, pH 2.15, hydronium ion 0.0071 M (sulfuric acid).
[2] abbreviates: active 100 ppm, pH 2.50, hydronium ion 0.0032 M (sulfuric acid).
Setting [3] is: active 100 ppm, pH 3.00, hydronium ion 0.001 M (sulfuric acid).

Marks after values point to notes of the source that are not given here.

In the case of Linear alkylbenzene sulfonate [LAS], the “Average Log Reduction” value (active 1000 ppm, pH 2.15, hydronium ion 0.0071 M (sulfuric acid)) came to 5.74 log; the “Average Log Reduction” value (active 1000 ppm, pH 3.02, hydronium ion 0.00095 M (sulfuric acid)) came out at 2.19 log; the “Average Log Reduction” value (active 1000 ppm, pH 7.48, hydronium ion 0.0000 M) was 2.07 log; the “Average Log Reduction” value (active 2000 ppm, pH 7.48, hydronium ion 0.0000 M) was 2.41 log; the “Average Log Reduction” value (active 3000 ppm, pH 7.46, hydronium ion 0.0000 M) is reported as 2.41 log; the “Average Log Reduction” value (active 4000 ppm, pH 7.48, hydronium ion 0.0000 M) worked out at 2.41 log.

As for `CCCCCCCC(=O)OO` [POOA, Peroxyoctanoic acid], the “Average Log Reduction” value is, setting by setting: under setting [1], 8.43 log; under setting [2], 7.24 log; under setting [3], 2.19 log; (active 100 ppm, pH 5.45, hydronium ion 0.0000 M) 1.95 log.

For `CC(=O)OO` [POAA, Peroxyacetic acid], under “220 ppm, without the hydronium ion”, the micro efficacy result is “fails to provide sufficient micro efficacy”. Further, the “Average Log Reduction” value reads like this: (active 110 ppm, pH 2.29, hydronium ion 0.0051 M (sulfuric acid)) 5.94 log; (active 220 ppm, pH 2.00, hydronium ion 0.01 M (sulfuric acid)) 4.45* log; (active 220 ppm, pH 2.29, hydronium ion 0.0051 M (sulfuric acid)) 8.70 log; (active 220 ppm, pH 2.30, hydronium ion 0.0050 M (sulfuric acid)) 2.42 log; (active 220 ppm, pH 2.45, hydronium ion 0.0035 M (sulfuric acid)) 2.11 log; (active 220 ppm, pH 2.50, hydronium ion 0.0032 M (sulfuric acid)) 2.15 log. For the same compound, the “Average Log Reduction” value reads like this: (active 220 ppm, pH 2.98, hydronium ion 0.001 M (sulfuric acid)) 2.15 log; (active 220 ppm, pH 3.46, hydronium ion 0.00035 M (sulfuric acid)) 2.15 log; (active 220 ppm, pH 4.20, hydronium ion 0.000063 M [No hydronium ion source], room temperature) 2.15 log; (active 320 ppm, pH 3.45, hydronium ion 0.00035 M (sulfuric acid)) 2.41 log; (active 420 ppm, pH 3.46, hydronium ion 0.00035 M (sulfuric acid)) 2.41 log; (active 520 ppm, pH 3.44, hydronium ion 0.00035 M (sulfuric acid)) 2.41 log.

For the compound `CCCCCCCC(=O)O` [Octanoic acid], the “Average Log Reduction” value under setting [1] is reported as 4.28 log; the “Average Log Reduction” value under setting [2] worked out at 7.59 log; the “Average Log Reduction” value under setting [3] is given as 2.19 log; the “Average Log Reduction” value (active 100 ppm, pH 6.43, hydronium ion 0.0000 M) is listed as 2.07 log; the “Average Log Reduction” value (active 200 ppm, pH 6.43, hydronium ion 0.0000 M) stood at 2.15 log; the “Average Log Reduction” value (active 300 ppm, pH 6.43, hydronium ion 0.0000 M) amounted to 2.15 log. Also, the “Average Log Reduction” value (active 400 ppm, pH 6.43, hydronium ion 0.0000 M) came out at 2.15 log.

The values above are taken from patent publication US20250049026A1, “BIOCIDAL COMPOSITIONS WITH HYDRONIUM ION SOURCES FOR BIOFILM CONTROL” (ECOLAB USA INC., priority 2020, published 2025).
